# Measurements published in patent US11203739B2, “Modulating cell proliferation and pluripotency” (Memorial Sloan Kettering Cancer Center, priority 2014, dated 2021).
# Entries after “also recorded” stand apart in the source; their conditions may differ.
# Experiments:
# Assay type in all cases: cell-based, mouse
# ESC-1 cells [1] = experiment: qRT-PCR gene expression of ICM and germline-associated genes; details: for expression of ICM and germline-associated genes: ESC-1 cells, three days
# Description: qRT-PCR. RNA was isolated using the RNeasy kit (Qiagen). After DNase treatment, 1-2 μg RNA was used for cDNA synthesis using the First-Strand Synthesis kit (Invitrogen). Quantitative RT-PCR analysis was performed in biological triplicate using an ABI Prism 7000 (Applied Biosystems) with Platinum SYBR green.
# ESC-1 cells [2] = experiment: Colony formation (self-renewal) assay with alkaline phosphatase staining; details: S/L medium, 4 mM, four days; for number of undifferentiated colonies: compared to S/L and the other treatment
# Description: Self-renewal assays. ES cells free of feeder MEFs were plated at 100 cells per well in 6-well plates coated with 20 μg/mL mouse laminin (Stemgent 06-0002) in maintenance S/L medium. The following day media was changed to S/L experimental medium containing dimethyl-α-ketoglutarate (4 mM, Sigma 349631), dimethyl-succinate (4 mM, Sigma W239607) or DMSO vehicle control. Four days later cells were washed with PBS and stained for alkaline phosphatase using Vector Red Alkaline Phosphatase Kit (Vector Labs) according to manufacturer's instructions.
# ESC-1 cells [3] = experiment: DNA methylation quantification (% 5mC); details: S/L medium, 24 hours
# Description: DNA methylation. Genomic DNA was extracted from ESC samples using Puregene Core Kit A (Sigma). DNA methylation was measured using the colorimetric MethylFlash Methylated DNA quantification kit (Epigentek) according to manufacturer instructions.
# ESC-V19 cells = experiment: Growth curves in glutamine-free medium; details: glutamine-free S/L or 2i/L media, 4 mM DM-αKG
# Description: (§1) Cell culture. Maintenance media for ES cells were as follows: serum/LIF (S/L) maintenance medium contained Knockout DMEM (Gibco) supplemented with 15% ESC-qualified FBS (Gemini), penicillin/streptomycin (Life Technologies), 0.1 mM 2-mercaptoethanol, L-glutamine (2 mM, Life Technologies) and leukemia inhibitory factor (LIF) plated onto irradiated feeder mouse embryonic fibroblasts (MEFs); 2i/LIF maintenance conditions used a base medium made from a 1:1 mix of DMEM/F12 (Life Technologies 11302-033) and Neurobasal (Life Technologies 21103-049) containing N2 and B27 supplements (Life Technologies 17502-048 and 17504-044, 1:100 dilutions), penicillin/streptromycin, 0.1 mM 2-mercaptoethanol, L-glutamine (2 mM), LIF, CHIR99021 at 3 μM (Stemgent) and PD0325901 at 1 μM (Stemgent). Experimental media utilized for all experiments (except growth curves with and without glucose, ^13C isotope tracing experiments and ^14C labeling experiments) contained 1:1 mix of glutamine-free DMEM (Life Technologies 11960-051) and Neurobasal (Life Technologies 21103-049) with or without 2 mM glutamine. With the exception of 15% dialyzed FBS (Gemini 100-108) in S/L experimental medium, all other supplements were equivalent to maintenance media (S/L or 2i/L). […]
# Growth curves. […] Cells were counted each day using a Beckman Coulter Multisizer 4.
# Nanog-GFP ESCs = experiment: Nanog-GFP reporter FACS; details: S/L medium, three days
# Description: FACS. Nanog-GFP ESCs^8 were cultured in S/L experimental medium for three passages and 2.5×10^4 cells were plated into a 6-well plate. Twenty-four hours later media was changed to S/L medium containing vehicle control or DM-AKG. Media was subsequently changed 48 hours later and cells harvested the following day. FACS analysis was performed at The Rockefeller University Flow Cytometry Resource Center using a BD LSR II. Data was generated using FlowJo. Analysis was performed on biological triplicates.
# ESC-1 cells [4] = experiment: Western blot of histone methylation in glutamine-free media with DM-αKG supplementation; details: glutamine-free S/L or 2i/L media, 24 hours
# Description: as §1
# ESC-1 cells [5] = experiment: GC-MS metabolite profiling, αKG:succinate ratio; details: 1 μM or 5 μM, 3 hours; for αKG:succinate ratio: S/L or 2i/L medium
# Description: Metabolite profiling. For all metabolite experiments, cells were seeded in their standard culture medium in 6-well plates and the next day were changed into experimental medium. Medium was changed again at the indicated time before harvest (usually 1-24 hours). Metabolites were extracted with 1 mL ice-cold 80% methanol supplemented with 20 μM deuterated 2-hydroxyglutarate (D-2-hydroxyglutaric-2,3,3,4,4-d5 acid, d5-2HG) as an internal standard. After overnight incubation at −80° C., lysates were harvested and centrifuged at 21,000 g for 20 minutes to remove protein. Extracts were dried in an evaporator (Genevac EZ-2 Elite) and resuspended by incubation at 30° C. for 2 hours in 50 μL of 40 mg/mL methoxyamine hydrochloride in pyridine. Metabolites were further derivatized by addition of 80 μL of MSTFA +1% TCMS (Thermo Scientific) and 70 μl ethyl acetate (Sigma) and incubated at 37° C. for 30 minutes. Samples were analyzed using an Agilent 7890A GC coupled to Agilent 5975C mass selective detector. […] Peaks representing compounds of interest were extracted and integrated using MassHunter software (Agilent Technologies) and then normalized to both the internal standard (d5-2HG) peak area and protein content of duplicate samples as determined by BCA protein assay (Thermo Scientific). Ions used for quantification of metabolite levels are as follows: d5-2HG m/z 354; KG, m/z 304; aspartate, m/z 334; citrate, m/z 465; glutamate, m/z 363; malate, m/z 335 and succinate, m/z 247. […] Enrichment of ^13C was assessed by quantifying the abundance of the following ions: αKG, m/z 304-315; aspartate, m/z 334-346; citrate, m/z 465-482; glutamate, m/z 363-377 and malate, m/z 335-347. […] Flux was calculated as the product of the first order rate constant of the kinetic labeling curve and relative metabolite pool size (normalized to mean S/L values for each experiment)^5. The flux from glucose- and glutamine-derived carbons was calculated for each of three independent experiments and the average total flux for each metabolite was shown.
# UTX/Jmjd3 = experiment: H3K27me3 ChIP-PCR at bivalent domain promoters; details: 30 μM, five hours
# Description: Chromatin immunoprecipitation. Native ChIP assays (histones) were performed with approximately 6×10^6 ESCs per experiment. Cells were subject to hypotonic lysis and treated with micrococcal nuclease to recover mono- to tri-nucleosomes. Nuclei were lysed by brief sonication and dialyzed into N-ChIP buffer (10 mM Tris pH 7.6, 1 mM EDTA, 0.1% SDS, 0.1% Na-Deoxycholate, 1% Triton X-100) for 2 hr at 4° C. Soluble material was incubated overnight at 4° C. following addition of 3-5 μg of antibody bound to 75 μL protein A Dynal magnetic beads (Invitrogen), with 5% kept as input DNA. Magnetic beads were washed, chromatin was eluted, and ChIP DNA was dissolved in 10 mM Tris pH 8 for quantitative PCR reactions (see below).
# ChIP-qPCR. Primers are listed below. All qPCR was performed using an Applied Biosystems StepOnePlus system and Power SYBR Green PCR master mix. ChIP samples were diluted 1:100 in H2O and 5 μL used per reaction. ChIP-qPCR signals were calculated as percent input.
# UTX and Jmjd3 = experiment: Western blot of H3K27 methylation after GSK-J4 treatment; details: ESC-1 cells in S/L, increasing amounts of GSK-J4, 24 hours
# Description: as §1
structure (smiles),measurement,setting,value
"COC(=O)CCC(=O)OC [DM-succinate, dimethyl-succinate]",expression of ICM and germline-associated genes,ESC-1 cells [1],not
same,predominant colony types,ESC-1 cells [2],either mixed or differentiated
same,number of undifferentiated colonies,ESC-1 cells [2],reproducible trend of fewer undifferentiated and more differentiated colonies
"COC(=O)CCC(=O)C(=O)OC [DM-αKG, dimethyl-α-ketoglutarate]",total DNA methylation (% 5mC),ESC-1 cells [3],reduced
same,glutamine-independent proliferation,ESC-V19 cells,sufficient to enable glutamine-independent proliferation in both S/L and 2i/L conditions
same,Nanog expression detected by GFP fluorescence,Nanog-GFP ESCs,sufficient to enhance Nanog expression in a dose-dependent manner
same,effects on gene expression in Tet1/Tet2 double knockout ES cells,ESC-1 cells [1]; 72 hours,largely abrogated in Tet1/Tet2 double knockout ES cells
same,expression of ICM and germline-associated genes,ESC-1 cells [1],induced expression of ICM and germline-associated genes
same,effects on gene expression upon extended passaging,"ESC-1 cells [1]; S/L medium, 24 hours or four passages",persisted upon extended passaging
same,H3K27me3 and H4K20me3 levels (Western blot),ESC-1 cells [4],reversed the increase in H3K27me3 and H4K20me3
same,colony staining and morphology (brightfield images),ESC-1 cells [2],stained brighter and retained a more compact colony morphology
same,number of undifferentiated colonies,ESC-1 cells [2],more than double the number of fully undifferentiated colonies; also recorded: more undifferentiated colonies than vehicle or DM-succinate treated wells
CCOC(=O)CCNc1cc(N2CCc3ccccc3CC2)nc(-c2ccccn2)n1 [GSK-J4],"absolute and relative increase in the αKG:succinate ratio, 2i/L compared with S/L",ESC-1 cells [5],more pronounced in the cells grown in 2i/L medium
same,αKG:succinate ratio,ESC-1 cells [5],triggered increases in the αKG:succinate ratio
same,H3K27me3 at bivalent domain promoters,UTX/Jmjd3; ESC-1 cells in 2i/L medium,consistent increase in H3K27me3 at bivalent domain promoters
same,H3K27me3 at bivalent domain promoters,UTX/Jmjd3; ESC-1 cells in S/L medium,did not change
same,H3K27me1 level (Western blot),UTX and Jmjd3,concomitant reduction of H3K27me1
same,H3K27me3 level (Western blot),UTX and Jmjd3,dose-dependent increase in H3K27me3
CCOC(=O)CCNc1cc(N2CCc3ccccc3CC2)nc(-c2cccnc2)n1 [GSK-J5],αKG:succinate ratio,ESC-1 cells [5],had no effect
